# According to US7223731B2, “Thrombospondin-1 type 1 repeat polypeptides” (Beth Israel Deaconess Medical Center, Inc., priority 2000, dated 2007):
# B1: 3TSR (TSP2): recombinant protein with all three TSRs of mouse TSP-2, amino acids Asp 381 through Ile 550 (protein, listed as Mus musculus)
# chain: DEGWSPWAEWTECSVTCGSGTQQRGRSCDVTSNTCLGPSIQTRTCSLGKCDTRIRQNGGWSHWSPWSSCSVTCGVGNVTRIRLCNSPVPQMGGKNCKGSGRETKPCQRDPCPIDGRWSPWSPWSACTVTCAGGIRERSRVCNSPEPQYGGKDCVGDVTEHQMCNKRSCPI
# B2: TSR2+RFK: recombinant longer version of the second type 1 repeat of human TSP-1 including the RFK sequence, amino acids 411–473 (protein, listed as Homo sapiens)
# chain: DKRFKQDGGWSHWSPWSSCSVTCGDGVITRIRLCNSPSPQMNGKPCEGEARETKACKKDACPI
# Columns and labels:
# B16F10 tumor cell = B16F10 tumor cell proliferation in vitro; assay type: cell-based, murine
# B16F10 melanoma = experiment: Primary tumor growth assay, B16F10 melanoma; assay type: in vivo, C57BL/6 mice; settings: for inhibition of B16F10 tumor growth: twelfth day of treatment
# Procedure: The proteins for injection were mixed with Polymyxin B-Agarose (Sigma) for 30 minutes at room temperature to remove endotoxin. The endotoxin levels were less than 0.05 EU/mg as determined using the QCL-1000 assay kit (Biowhittaker, Walkersville, Md.). Proteins were filter-sterilized and the protein concentration was determined prior to injection.
# (§1) Five to eight week old C57BL/6 mice (Taconic, Germantown, N.Y.) were acclimated, caged in groups of four or less and their backs were shaved. Cultured B16F10 melanoma or Lewis lung carcinoma cells (1×10^6) were inoculated subcutaneously on the back of each mouse. Tumors were measured with a dial-caliper and the volumes were determined using the formula width^2×length×0.52. The treatment began 4 days after inoculation of the tumor cells. […] The experiments were terminated and mice sacrificed when the control mice began to die, usually at day 16 post-tumor cell injection.
# Each treatment group contained six five- to eight-week old C57BL/6 mice. Treatment was initiated four days after subcutaneous injection of 1×10^6 B16F10 melanoma cells. The mice received one IP injection each day of saline, TSR2, TSR2+RFK or TSR2+QFK (SEQ ID NO: 23). A soluble form of the TGFβ receptor (100 μg/mouse/injection) (Smith, J. D. et al., Circulation Research 84:1212–1222, 1999) was included in the saline or TSR2+RFK injections on treatment day 1 and 7 for two additional experimental groups. The recombinant TSR-containing proteins were used at 1.0 mg/kg/day.
# Each treatment group contained six five- to eight-week old C57BL/6 mice. Treatment was initiated four days after subcutaneous injections of 1×10^6 B16F10 melanoma cells. The mice received one IP injection each day, of saline, all three type 1 repeats of human TSP-1 [3TSR (TSP1) in FIG. 9] or all three type 1 repeats of mouse TSP-2 [3TSR (TSP2) in FIG. 9]. Recombinant proteins were used at a dose of 2.5 mg/kg/day.
# TGFβ = experiment: Assay for TGFβ activation (MLEC luciferase assay on B16F10 conditioned media); assay type: cell-based, murine; settings: for level of the active form of TGFβ as % of the total TGFβ: 5 μg/ml protein added, media conditioned by B16F10 melanoma cells, control 6.3%; for activation of TGFβ (in words): culture supernatant from B16F10 cells
# Procedure: Human dermal microvessel endothelial cells (HDMEC) were isolated by the procedure of Richard et al., Exp. Cell Res. 240:1-6 (1998). The cells were cultured in Vitrogen precoated dishes, and maintained in EBM (Clonetics Corp, San Diego, Calif.) containing 20% fetal bovine serum (FBS), 1 mg/ml hydrocortisone acetate, 5×10^-5 M dibutyryl-cAMP, 200 U/ml penicillin, 100 U/ml streptomycin, 250 mg/ml amphotericin and 2-5 ng/ml VEGF. Murine melanoma B16F10 and murine Lewis lung carcinoma cells were obtained from the ATCC, and were maintained in Dulbecco's Modified Eagle Media (DMEM) supplemented with 10% FBS, […] penicillin, 50 U/ml streptomycin, and 2 mM glutamine (supplemented DMEM). Mink lung epithelial cells (MLECs-Clone 32) that have been stably transfected with an 800 bp fragment of the plasminogen activator inhibitor-1 (PAI-1) promoter fused to the firefly luciferase reporter gene were kindly provided by Dr. Daniel Rifkin (Abe, M. et al., Anal. Biochem. 216:276-284, 1994). The transfected MLECs were maintained in supplemented DMEM. B16F10 cells (2.5×10^5) were plated in a T25 flask and grown overnight in supplemented DMEM. The cells were rinsed once with 1.0 ml of serum-free DMEM and 2.5 ml of serum-free DMEM containing […] of the TSR, or […] recombinant protein were added. After an overnight incubation, conditioned media was collected and centrifuged at 12,000 rpm for 5 min to remove cellular debris. Undiluted media was used to determine the level of active TGFβ. The level of total TGFβ was determined by incubating the media at 80° C. for 10 min and diluting 1:5 in DMEM. One hundred microliters of conditioned media were added to wells of a 96-well plate containing 3×10^4 MLECs and the plates were incubated overnight. A standard curve was constructed by incubating 7.8 to 250 pg/ml of purified TGFβ with the […].) in DMEM. The media was removed and the cells were washed 3 times with cold PBS prior to the addition of […] of lysis buffer (PharMingen, San Diego, Calif.). Luciferase activity was measured using the Enhanced Luciferase Assay Kit PharMingen).
# [1] = tested on: Human dermal microvessel endothelial cells (HDMEC); experiment: In vitro endothelial cell migration assay (FGF-2 induced, transwell); assay type: cell-based; settings: for concentration maximally effective in inhibiting endothelial cell migration: HDMEC migration in response to FGF-2
# Procedure: Human dermal microvessel endothelial cells (HDMEC) were isolated by the procedure of Richard et al., Exp. Cell Res. 240:1–6 (1998). The cells were cultured in Vitrogen precoated dishes, and maintained in EBM (Clonetics Corp, San Diego, Calif.) containing 20% fetal bovine serum (FBS), 1 mg/ml hydrocortisone acetate, 5×10^−5 M dibutyryl-cAMP, 200 U/ml penicillin, 100 U/ml streptomycin, 250 mg/ml amphotericin and 2–5 ng/ml VEGF. Murine melanoma B16F10 and murine Lewis lung carcinoma cells were obtained from the ATCC, and were maintained in Dulbecco's Modified Eagle Media (DMEM) supplemented with 10% FBS, […] penicillin, 50 U/ml streptomycin, and 2 mM glutamine (supplemented DMEM). Mink lung epithelial cells (MLECs-Clone 32) that have been stably transfected with an 800 bp fragment of the plasminogen activator inhibitor-1 (PAI-1) promoter fused to the firefly luciferase reporter gene were kindly provided by Dr. Daniel Rifkin (Abe, M. et al., Anal. Biochem. 216:276–284, 1994). The transfected MLECs were maintained in supplemented DMEM.
# Cells at passage 7–10 were serum-starved and maintained in EBM with 0.1% BSA (control media) for 20 hours before trypsinization to harvest the cells. Cells were washed in EBM twice and resuspended in control media at a concentration of 1×10^6 cells/ml. […] of cells were packed down and kept frozen. They were lysed and serially diluted by CyQuant reagent (Molecular Probe, Eugene, Oreg.) to be used for standard curve construction.
# Transwell membrane (24-well polycarbonate membrane, […] from Corning Costar Corporation, Cambridge, Mass.) coated with Vitrogen (30 mg/ml, Invitrogen) on both sides was used for chemotactic migration experiments. Coated transwells were inverted, […] of cell suspension applied to the top of the membrane and covered by the bottom plate carefully so that the cell suspension stayed on top of the membrane. The cells were allowed to adhere to the coated membrane for two hours in an incubator at 37° C. with 5% CO2. After the adhesion incubation, the plates were re-inverted, the bottom wells were filled with 0.4 ml control media and the top wells were filled with 0.1 ml control media containing testing reagents. The plate was returned to the incubator for 3.5 hours for the cells to migrate. At the end of the incubation, the transwells were washed in PBS and the cells on the […] of the membrane (unmigrated cells) were wiped away with a cotton swab. The membranes were cut out by scalpel and placed into 96-well plates and frozen at −80° C. overnight. […] Fluorescence reading was done 16 hours later with a SpectraFluor plate reader with excitation at 485 nm and emission at […]. The number of cells migrated was then calculated based on the standard curve.
# B16F10 tumors = experiment: Histological examination of B16F10 tumors (anti-CD31, TUNEL, PCNA); assay type: in vivo, C57BL/6 mice; settings: 1.0 mg/kg/day, twelfth treatment day; for decrease in number of proliferating tumor cells: PCNA positive cells; for increase in tumor cell apoptosis: TUNEL; for reduction in capillary density: anti-CD31
# Procedure: The tumor tissues were cut, fixed with neutral buffered formaldehyde, and embedded in paraffin according to standard histological procedures. Hematoxylin and eosin staining was employed for tissue morphology examination. Blood vessels were immunochemically stained by anti-CD31 antibody with a Vectastain ABC kit (Vector Laboratories, Burlingame, Calif.). Tumor cell apoptosis was detected by TUNEL assay (Abe, M. et al., Anal. Biochem, 216:276–84, 1994). The number of blood vessels was recorded by counting ten high-power fields. Tumor cell proliferation and the apoptotic index were estimated by the percentage of cells scored under a light microscope. A minimum of 1,000 cells was counted in each tumor sample. To better understand the effect of the recombinant protein treatment on tumor growth, we have determined the rate of proliferation, the apoptotic index and the capillary density for tumors in the saline control group, mice treated with the TSR2+RFK protein or mice treated with the TSR2 protein at an intermediate dose (1.0 mg/kg/day) where the largest effect of inclusion of the RFK sequence is observed. Tumors were removed and fixed on the twelfth treatment day. Capillaries were visualized with anti-CD31 antibody and apoptotic cells were identified by TUNEL. […] The number of proliferating cells was decreased by 35% by treatment with the TSR2+RFK protein (p<0.005), while treatment with the TSR2 protein reduced tumor cell proliferation by 7.8% (p<0.05) (FIG. 6C).
# Lewis lung carcinoma = experiment: Primary tumor growth assay, Lewis lung carcinoma; assay type: in vivo, C57BL/6 mice; settings: 2.5 mg/kg/day IP daily, treatment day 12
# Procedure: as §1, with “The proteins for injection were mixed with Polymyxin B-Agarose (Sigma) for 30 minutes at room temperature to remove endotoxin. The endotoxin levels were less than 0.05 EU/mg as determined using the QCL-1000 assay kit (Biowhittaker, Walkersville, Md.). Proteins were filter-sterilized and the protein concentration was determined prior to injection. Five” for “Five”
molecule,measurement,setting,value
TGFβ [reference compound],B16F10 tumor cell proliferation in vitro (in words),B16F10 tumor cell,inhibit
TSR2+QFK: recombinant version of the TSR2+RFK protein in which Q is substituted for R (arginine 413 to glutamine),B16F10 tumor growth inhibition (in words),"B16F10 melanoma; 1.0 mg/kg/day IP daily, FIG. 8",less effective as an inhibitor of tumor growth than TSR2+RFK
"TSR2: recombinant protein that contains the second TSR of human TSP-1, amino acids 416–473, excludes DKRFK",level of the active form of TGFβ as % of the total TGFβ,TGFβ,4.8%
same,activation of TGFβ (in words),TGFβ,does not
same,concentration maximally effective in inhibiting endothelial cell migration,[1],10 ng/mL
same,B16F10 tumor growth inhibition (in words),B16F10 melanoma; 0.25 mg/kg/day IP daily,indistinguishable from the control group
same,inhibition of B16F10 tumor growth,B16F10 melanoma; 1.0 mg/kg/day IP daily,38%
same,inhibition of B16F10 tumor growth (tumor volume),B16F10 melanoma; 2.5 mg/kg/day IP daily,68%
same,decrease in number of proliferating tumor cells,B16F10 tumors,7.8%
same,increase in tumor cell apoptosis,B16F10 tumors,1.9 fold
same,reduction in capillary density,B16F10 tumors,64%
"3TSR: recombinant protein containing all three TSRs of human TSP-1, amino acids 361–530",concentration maximally effective in inhibiting endothelial cell migration,[1],10 ng/mL
same,B16F10 tumor growth inhibition (in words),B16F10 melanoma; 0.25 mg/kg/day IP daily,less effective
same,inhibition of B16F10 tumor growth (tumor volume),B16F10 melanoma; 2.5 mg/kg/day IP daily,81%
same,B16F10 tumor growth inhibition (in words),B16F10 melanoma; 10 mg/kg/day,remains maximally active
same,B16F10 tumor growth inhibition compared with TSP-1 (in words),B16F10 melanoma; dosages of 1.0 mg/kg/day and greater,more effective than TSP-1
same,inhibition of Lewis lung carcinoma tumor growth,Lewis lung carcinoma,73%
TSP-1: Human TSP-1 purified from the supernatant of thrombin-treated platelets,concentration up to which inhibition of endothelial cell migration is dose-dependent,"[1]; biphasic response, concentrations above this level are less effective",100 ng/mL
same,reduction of tumor growth,B16F10 melanoma; 0.25 mg/kg/day (0.6 nmoles/kg/day) injection,56%
same,B16F10 tumor growth inhibition (in words),B16F10 melanoma; 2.5 mg/kg/day IP daily,no effect
same,inhibition of tumor growth,"B16F10 melanoma; systemic injection, 0.25 mg/ml as printed, twelfth treatment day",56%
B1,B16F10 tumor growth inhibition (in words),B16F10 melanoma; 2.5 mg/kg/day IP daily,significantly less potent
B2,level of the active form of TGFβ as % of the total TGFβ,TGFβ,30%
same,activation of TGFβ (in words),TGFβ,activates TGFβ
same,concentration maximally effective in inhibiting endothelial cell migration,[1],10 ng/mL
same,inhibition of B16F10 tumor growth,B16F10 melanoma; 1.0 mg/kg/day IP daily,80%
same,inhibition of B16F10 tumor growth (tumor volume),B16F10 melanoma; 2.5 mg/kg/day IP daily,86%
same,inhibition of Lewis lung carcinoma tumor growth,Lewis lung carcinoma,77%
same,decrease in number of proliferating tumor cells,B16F10 tumors,35%
same,increase in tumor cell apoptosis,B16F10 tumors,4 fold
same,reduction in capillary density,B16F10 tumors,71%
same,B16F10 tumor cell proliferation in vitro (in words),B16F10 tumor cell,inhibit
